Each structure is given as a SMILES string. Starred links: 1 amine or outer side, 2 acyl side, 3 side chain; linkers in the order of their positions; H or OH if unused. Positions of bridges follow the written chain, without caps; N, C: chain ends. Non-standard residues stand in square brackets, D forms with d. Residues, ends and D or L forms follow the SMILES beside them. TATA = O=C(CC[*:1])N1CN(C(=O)CC[*:2])CN(C(=O)CC[*:3])C1; Phe(4-F) = N[C@@H](Cc1ccc(F)cc1)C(=O)O; β3hR = N=C(N)NCCC[C@H](N)CC(=O)O

Results on 3 molecules are retold here after patent US20180118786A1, “NOVEL lNHIBITORS OF THE ENZYME ACTIVATED FACTOR XII (FXIIA)” (ECOLE POLYTECHNIQUE FEDERALE DE LAUSANNE (EPFL), priority 2015, published 2018).

A short description of one data set: in vitro. The following applies: human, plasma.
In data set [1] the test system is thrombin generation in platelet poor plasma. The data set is described as follows: Thrombin generation assay by CAT, TF-triggered or without trigger. Format: biochemical, human. More on the design: lag time: unit not given here. How it is done: (§1) Thrombin generation was performed as previously described with some modifications.30 In brief, 60 μL platelet poor plasma (PPP), 20 μL FXIIa inhibitor/HA buffer (Hepes 20 mM, NaCl 140 mM, pH 7.4, 5 mg/mL BSA), and 20 μL PPP reagent, PPP LOW reagent, MP reagent or Actin FS (1:170 diluted in HA buffer) were mixed in a 96-well microtiter plate (Immulon 2HB; Thermo Fisher Scientific) and incubated for 15 min at 37° C. Thrombin generation was triggered by the addition of 20 μL of substrate/calcium chloride buffer (FLUKA) at 37° C. Samples were tested in triplicate for each condition. Fluorogenic thrombin substrate hydrolysis was measured every 20 s for 120 min on a microplate fluorometer (Fluoroskan Ascent FL; Thermo Fisher Scientific) with a 390/460-nm (excitation/emission) filter set. Data analysis was performed on the Thrombinoscope software (Synapse By). PPP reagent (TF […], PL 4 μM), PPP LOW reagent (TF […], PL 4 μM), MP reagent (PL 4 μM), thrombin calibrator and FLUKA were purchased from Synapse By.
Venous blood was collected from healthy volunteers by antecubital venipuncture with 19-gauge needles in 3,2% (w/v) citrated Monovette plastic tubes. In order to minimize contact activation, the first collection tube containing EDTA was discarded according to standard procedures. […] Blood was then processed to PPP by an initial centrifugation step at 2,000 g for 5 min followed by a second centrifugation step at 10,000 g for 10 min. Plasma aliquots were stored at −80 until analysis.

For data set [2] the test system is unchanged. The description is as above. It is filed as biochemical, human. The following applies: 1 pM TF, 100 μg/mL inhibitor.
The test system of data set [3] is intrinsic pathway (contact activation). The data set is described as follows: Thrombin generation assay by CAT triggered by ellagic acid. It is filed as biochemical, human. Particulars: ellagic acid trigger, 20 μg/mL. On the procedure: as §1
Another data set deals with extrinsic pathway. In words: PT in human plasma (Example 1). Format: biochemical. Particulars: 40 μM. How it is done:
(§2) aPTT, PT and FXII coagulant activity (FXII:c) measurements Coagulation times (aPTT, PT) and FXIIa activity were determined in human plasma using an automated blood coagulation analyzer (Sysmex CS-5100, Siemens, Eschborn, Germany) with according to the manufacturer's instructions (Siemens). Extrinsic coagulation was triggered with Innovin® (recombinant human tissue factor, synthetic phospholipids and calcium in stabilized HEPES buffer system; Dade Behring/Simens). Intrinsic coagulation was triggered with Pathromtin* SL (Siemens). Human plasma used in this study was derived from a pool of fresh frozen plasma units provided by the Service Regional Vaudois de Transfusion Sanguine, Switzerland.
(§3) Coagulation times (aPTT, PT) and FXIIa activity were determined, at least in duplicate, in human plasma using an automated blood coagulation analyzer (Sysmex CA-7000) with standard reagents according to the manufacturer's instructions (Siemens Healthcare, Eschborn, Germany). Human plasma used in this study was derived from a pool of fresh frozen plasma units provided by the Service Regional Vaudois de Transfusion Sanguine, Switzerland.

The target of the next data set is T1, FXII activity (Mus musculus, UniProt Q80YC5).
T1 construct: from tissue; host or cells: plasma of BALB/c mice after injection
T1 sequence (Q80YC5 20-597): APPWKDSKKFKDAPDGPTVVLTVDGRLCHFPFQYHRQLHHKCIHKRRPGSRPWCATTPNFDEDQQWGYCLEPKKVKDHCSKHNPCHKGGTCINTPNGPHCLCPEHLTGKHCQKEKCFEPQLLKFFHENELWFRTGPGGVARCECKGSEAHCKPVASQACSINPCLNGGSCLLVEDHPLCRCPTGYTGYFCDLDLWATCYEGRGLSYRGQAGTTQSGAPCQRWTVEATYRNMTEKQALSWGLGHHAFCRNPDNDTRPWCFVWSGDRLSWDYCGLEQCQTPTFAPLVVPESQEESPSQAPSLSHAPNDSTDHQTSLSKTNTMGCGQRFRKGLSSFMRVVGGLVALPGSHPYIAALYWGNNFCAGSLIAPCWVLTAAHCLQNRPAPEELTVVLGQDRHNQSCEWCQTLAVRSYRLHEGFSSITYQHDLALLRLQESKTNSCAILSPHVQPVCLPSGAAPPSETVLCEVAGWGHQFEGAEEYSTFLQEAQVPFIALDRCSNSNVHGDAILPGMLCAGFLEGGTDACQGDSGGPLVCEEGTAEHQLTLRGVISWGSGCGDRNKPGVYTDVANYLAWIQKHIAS
The data set is described as follows: Inhibition of FXII activity in vivo. More on the design: species or system BALB/c mice. Particulars: mice. How it is done: Female BALB/c mice were anesthetized with 125 mg/kg pentobarbital. […] Five minutes later, blood was collected from the vena cava at a 1:9 blood to citrate ratio. Plasma was prepared by centrifugation at 2,400 g 10 minutes at RT. FXIIa activity was assessed as described above.

In data set [4] the test system is intrinsic pathway of coagulation. The data set is described as follows: aPTT in human plasma (Example 1). Format: biochemical. How it is done: as §2, §3
The target in a further data set is T2, human β-FXIIa (Homo sapiens, UniProt P00748).
T2 construct: human β-FXIIa, a naturally occurring proteolytic product of FXIIa comprising only the catalytic domain; purchased Molecular Innovations HFXIIAB
In words: Protease inhibition assay with fluorogenic substrate (Example 1). Format: biochemical.

A further data set concerns the target T3, FXII (Homo sapiens, UniProt P00748).
T3 construct: from tissue; host or cells: pooled fresh frozen human plasma
T3 sequence (P00748 20-615): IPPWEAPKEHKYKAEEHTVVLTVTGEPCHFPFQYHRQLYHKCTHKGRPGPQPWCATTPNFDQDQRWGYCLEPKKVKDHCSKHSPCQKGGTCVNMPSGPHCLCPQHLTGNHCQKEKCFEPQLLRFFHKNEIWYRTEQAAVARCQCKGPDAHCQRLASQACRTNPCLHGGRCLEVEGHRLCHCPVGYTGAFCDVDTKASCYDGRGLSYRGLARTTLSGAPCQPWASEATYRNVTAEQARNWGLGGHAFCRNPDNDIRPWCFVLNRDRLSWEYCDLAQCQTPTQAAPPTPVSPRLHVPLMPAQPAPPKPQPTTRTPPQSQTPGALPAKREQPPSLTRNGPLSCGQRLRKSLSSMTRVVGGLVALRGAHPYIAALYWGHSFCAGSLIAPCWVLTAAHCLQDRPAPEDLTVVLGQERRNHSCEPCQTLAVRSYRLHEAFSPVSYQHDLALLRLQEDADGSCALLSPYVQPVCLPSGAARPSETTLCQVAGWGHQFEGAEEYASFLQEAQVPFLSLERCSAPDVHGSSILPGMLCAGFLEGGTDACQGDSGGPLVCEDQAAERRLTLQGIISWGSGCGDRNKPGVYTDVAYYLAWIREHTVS
The data set is described as follows: FXII coagulant activity (FXII:c) in human plasma. Format: biochemical. Particulars: 50 μM. On the procedure:
as §2, §3

Data set [5] concerns the target T4, trypsin (Homo sapiens, UniProt P07477). The data set is described as follows: Specificity FXII618 vs CTI, trypsin. It is filed as biochemical.
Another data set is described as follows: Plasma stability assay. Particulars: human.
In data set [6] the test system is intrinsic coagulation pathway. In words: aPTT in human plasma (Example 2). It is filed as biochemical. How it is done:
Coagulation times (aPTT, PT) were determined in human plasma using a blood coagulation analyzer (STart. Hemostasis coagulation analyzer, Diagnostica Stago). Extrinsic coagulation was triggered with Innovin (recombinant human tissue factor, synthetic phospholipids and calcium in stabilized HEPES buffer system; Dade Behring; Siemens). Intrinsic coagulation was triggered with Pathromtin* SL (Siemens). Pooled normal human plasma used in this study was provided by Innovative research (USA).
The ability to selectively suppress the intrinsic coagulation pathway was assessed in in vitro coagulation assays. Activated partial thromboplastin time (aPTT) and prothrombin time (PT) measure the time to coagulation upon initiation of coagulation either via the intrinsic (aPTT) or the extrinsic pathway (PT). These tests have been performed in human plasma in the presence of different concentrations of FXIIa-inhibitors. Selective FXIIa inhibition is expected to increase aPTT but not PT. […] At a concentration of 5 μM peptide inhibitor no coagulation via the intrinsic pathway occurred within 120 s. Additionally, there was a correlation between inhibitory activity against FXIIa and extent of aPTT prolongation.

The target of data set [7] is T4, trypsin. In words: Specificity testing (Example 2), trypsin. It is filed as biochemical. More on the design: purchased Molecular Innovations. On the procedure: (§4) For the specificity testing the following final concentrations of human serine proteases were used: tPA (Molecular Innovations) 7.5 nM, uPA (Molecular Innovations) 1.5 nM, factor XIa (Innovative Research, Novi, Mich., U.S.) 6 nM, PK (Innovative Research) 0.25 nM, thrombin (Molecular Innovations) 1 nM, plasmin (Molecular Innovations) 2.5 nM, trypsin (Molecular Innovations) 0.05 nM, factor VIIa (Haematologic Technologies Inc.) 50 nM and factor Xa (Haematologic Technologies Inc,) 6 nM.
(§5) Dilutions of peptides were prepared ranging from 0.04 to 40 μM.

For data set [8], the system named is structurally related or functionally important proteases. The data set is described as follows: Specificity testing (Example 2), other proteases. It is filed as biochemical, human. How it is done:
as §4, §5

[9] abbreviates: absence of extrinsic- or intrinsic-specific trigger, 100 μg/mL inhibitor.

Method for Plasma stability assay: (§6) Peptide (2 μl of 2 mM in H2O) was added to 398 μl human plasma (final peptide concentration was 10 μM in 400 μl final volume). The mixture was incubated in the water bath at 37° C. At 8 different time points (0 h, 30 min, 1 h, 2 h, 4 h, 8 h, 12 h, 24 h and in some cases 48 h) a sample of 30 μl was removed, diluted to 200 μl with the same buffer used for protease inhibition assay (see above) and heat-inactivated for 20 min at 65° C. During this step proteases present in plasma are being inactivated, that would otherwise interfere with the subsequently performed enzymatic assay. […] Before analysis, plasma samples were centrifuged for 5 min at 16′000 g and the supernatant was collected. A twofold dilution series ranging from 0.0005-0.5 μM was prepared. IC50 values were derived from the fitted curve using the equation indicated above. Residual inhibition in % was calculated using the following formula: IC50, 0h/IC50, xh*100 wherein IC50, 0h is the functional strength of the inhibitor at time point 0 and IC50, xh the functional strength of inhibitor after one of the different plasma incubation period mentioned above.
(§7) The activity of the plasma proteases was heat-inactivated by incubation of the samples at 65° C. for 10 minutes.
Method for human β-FXIIa: The inhibitory activity of bicyclic peptides was determined by incubation with proteases and quantification of their residual activity with a fluorogenic substrate. Final concentration of human b-FXIIa (HFXIIAB; Molecular Innovations) and mouse α-FXIIa (MFXIIA; Molecular Innovations) was 10 nM. Dilutions of peptides were prepared ranging from 0.2-200 mM. Fluorescence intensity was measured with an Infinite M200Pro fluorescence plate reader (excitation at 355 nm, emission at 460 nm; Tecan, Männedorf, Switzerland). The reactions were performed at RT. Sigmoidal curves were fitted to the data using the following dose response equation wherein x=peptide concentration, y=% activity of reaction without peptide, A1=100%, A2=0%, p=1. IC50 values were derived from the fitted curve.
The inhibitory constant Ki was calculated according to the equation of Cheng and Prusoff^29 Ki=/050/(1+([S]0/Km) wherein IC50 is the functional strength of the inhibitor, [S]0 is the total substrate concentration, and Km is the Michaelis-Menten constant.
Method for in vitro: as §6, §7

On to `CC(C)C[C@@H]1NC(=O)[C@H](CCC(N)=O)NC(=O)[C@H](CCCNC(=N)N)NC(=O)[C@@H]2CSCCC(=O)N3CN(CN(C3)C(=O)CCSC[C@H](NC(=O)[C@@H](N)CCCNC(=N)N)C(=O)N[C@@H](Cc3ccccc3)C(=O)N[C@@H](CCCNC(=N)N)C(=O)N[C@@H](CC(C)C)C(=O)N3CCC[C@H]3C(=O)N2)C(=O)CCSC[C@@H](C(=O)N[C@@H](CCCNC(=N)N)C(N)=O)NC(=O)[C@H](CCCNC(=N)N)NC1=O` [FXII618], for which the half-life (as a rule, the time needed for the level to fall by half in the phase considered) at 10 μM in “in vitro” is 3.9 ± 1.9 h. Also, the lag time in [1] (0.25 pM TF, 100 μg/mL inhibitor) was determined as 12.3±0.3. Besides, in [1] (setting [9]), the lag time came to 55.8±3.7 and the peak came out at 60.3±0.8. In addition, in data set [1] (high concentration of TF, 100 μg/mL inhibitor), the “effect on TF-induced thrombin generation” value is recorded as “did not affect TF-induced thrombin generation”. Also, in [1] (inhibitor added to whole blood immediately after sampling, no trigger), the thrombin activation entry is on record as “completely block thrombin activation”. For the same molecule, the “effect on thrombin generation” value in data set [2] was “no significant effect”. Besides, in [3], the “reduction of endogenous thrombin potential (ETP)” value was above 90% and the reduction of peak is recorded as above 90%. The “effect on extrinsic pathway (PT)” value in the data set with extrinsic pathway is “without affecting the extrinsic pathway”. The PT at FXII activity (3.5 mg/kg FXII618 combined with 3.5 mg/kg PK128) worked out at 7.1 ± 0.2 s. Further, the FXII activity at FXII activity (3.5 mg/kg FXII618 combined with 3.5 mg/kg PK128 r.o., blood after five minutes) is on record as 49.7+/−13.9%. The same molecule showed an aPTT in [4] (citrated platelet poor plasma, 100 μg/mL inhibitor) above 170 s. Further, the aPTT in [4] (human plasma, 40 μM) was above 170 s. Moreover, the “more potent than PCK” value on human β-FXIIa (compared to PCK) is “around 8 fold”. Besides, the “more potent than inhibitor 44” value at human β-FXIIa (compared to small molecule FXIIa inhibitor 44) was above 200 fold. Also, at human β-FXIIa (in comparison to parent FXII516), the “improvement in inhibiting human FXIIa” value was 8 fold. For the same molecule, the “FXII coagulant activity (FXII:c)” value at FXII is listed as below 5%. Also, the inhibition of trypsin result against trypsin [5] (at a concentration as high as 1000 nM) was “no inhibition”. Besides, the “trypsin inhibition weaker compared to CTI” value on trypsin [5] (compared to CTI) is on record as “around 100 fold”.
With `CC(C)C[C@@H]1NC(=O)[C@H](CCC(N)=O)NC(=O)[C@H](Cc2c[nH]cn2)NC(=O)[C@@H]2CSCCC(=O)N3CN(CN(C3)C(=O)CCSC[C@H](NC(=O)[C@@H](CO)NC(=O)[C@H](N)CCCNC(=N)N)C(=O)N[C@@H](Cc3ccc(F)cc3)C(=O)N[C@@H](CCCNC(=N)N)C(=O)N[C@@H](CC(C)C)C(=O)N3CCC[C@H]3C(=O)N2)C(=O)CCSC[C@@H](C(N)=O)NC(=O)C[C@H](CCCNC(=N)N)NC1=O` [JS33-R] (H-[dR][dS]C[Phe(4-F)]RLPCHQL[β3hR]C-NH2; linker 3-8-13 via TATA; N-terminus and C-terminus assumed), in “Plasma stability assay”, the half-life at 10 μM was 127 h.
In the data set “in vitro”, `CC(C)C[C@@H]1NC(=O)[C@H](CCC(N)=O)NC(=O)[C@H](CCCNC(=N)N)NC(=O)[C@@H]2CSCCC(=O)N3CN(CN(C3)C(=O)CCSC[C@H](NC(=O)[C@@H](N)CCNC(=N)N)C(=O)N[C@@H](Cc3ccc(F)cc3)C(=O)N[C@@H](CCCNC(=N)N)C(=O)N[C@@H](CC(C)C)C(=O)N3CCC[C@H]3C(=O)N2)C(=O)CCSC[C@@H](C(=O)N[C@@H](CCCNC(=N)N)C(N)=O)NC(=O)[C@H](CCCNC(=N)N)NC1=O` [peptide 73] had a half-life at 10 μM of 15.5 ± 3.9 h. Besides, in data set [6], the “aPTT prolongation compared with peptide 1” value is “significantly increased aPTT prolongation”. Besides, the selectivity over trypsin at trypsin [7] amounted to 300 fold. For the same molecule, the “selectivity over other plasma proteases” value in data set [8] was ≥ 11,000 fold. Moreover, in [8] (highest concentration tested (40 μM)), the “inhibition of eight of the ten proteases” value was “less than 20%”.
